Consider ten molecules from article PMC9804910 (Chembiochem, 2022).

The subject of one series is cancer cells. Further details: method as in PMID 25313823. To be noted: 2 h incubation; cited from earlier work.
In the next series the test system is different tumour cells. Also on record: method as in PMID 17199281. The note with it: cited from earlier work.
Series [1] relates to CT‐26 (mouse colon adenocarcinoma). In words: Fluorometric cell viability assay (Resazurin), 2D monolayer. The format is cell-based. The note with it: for IC50: CT‐26, 48 h. The protocol: (§1) The first step toward the biological investigation of complexes 3–8 was the evaluation of cell viability in monolayer cultures of CT‐26 (mouse colon adenocarcinoma), PC‐3 (human prostate adenocarcinoma), and RPE‐1 (human normal retina pigmented epithelial) cell lines using a fluorometric cell viability assay with the Resazurin reagent. Cisplatin and 1 were tested in the same cell lines as positive and additional controls.
(§2) Cell cultures: The CT‐26 cell line was cultured in DMEM media (Gibco) supplemented with 10 % foetal calf serum (Gibco) and 1 % penicillin‐streptomycin antibiotic (Gibco). The PC‐3 cell line was cultured in F12‐K media (Gibco) supplemented with 10 % foetal calf serum (Gibco) and 1 % Penicillin‐Streptomycin antibiotic (Gibco). The RPE‐1 cell line was cultured in DMEM/F‐12 media (Gibco) supplemented with 10 % foetal calf serum and 1 % Penicillin‐Streptomycin antibiotic (Gibco). Cell lines were maintained in a humidified atmosphere at 37 °C with 5 % CO2.
(§3) Cytotoxicity assay using a 2D cellular model: The cytotoxicity of the tested Ru complexes was assessed by a fluorometric cell viability assay using Resazurin (Acros Organics). Briefly, cells were seeded in triplicate in 96‐well plates at a 4×10^3 cells/ well density in 100 μL. After 24 h, cells were treated with increasing concentrations of the ruthenium complexes and controls. Dilutions for complexes 3–8 were prepared as follows: 10 mM stock solution in DMSO was diluted to 100–0.01 μM with medium. After 48 h of incubation, the medium was removed, and 100 μL of complete medium containing resazurin (0.2 mg/mL final concentration) was added. After 4 h of incubation at 37 °C, the fluorescence signal of the resorufin product was read (ex 540 nm, em 590 nm) in an Infinite 200 PRO Microplate Reader from TECAN. IC50 values were then calculated using GraphPad Prism software.

Series [2] relates to PC‐3 (human prostate adenocarcinoma). The description is as above. The class given is cell-based. The note with it: PC‐3, 48 h. The protocol: as §1, §2, §3
The test system of series [3] is RPE‐1 (human normal retina pigmented epithelial). The description is as above. The class given is cell-based. To be noted: RPE‐1, 48 h. How it is done: as §1, §2, §3
Series [4] can be described thus: Stability in human plasma (UV-Vis and HPLC). The class given is in vitro ADME. The note with it: 37 °C. How it is done: The biological activity of anticancer drugs candidates is strongly influenced by their stability in DMSO, medium cell culture, and human plasma. For this reason, we performed stability studies of complexes 3–8 at 37 °C in DMSO and DMEM medium (Gibco) (Supporting Information Figures S1 ‐ S2). […] Finally, the stability of the compounds was investigated by incubating them in human plasma at 37 °C for 48 h, followed by UV‐Vis and HPLC analysis. […] After 48 h, only 15 % of the complex was still intact, as observed by HPLC (Supporting Information Figure S5).
Stock solutions of each complex (2 mM) and caffeine (2 mM) were prepared in dimethyl sulfoxide. 50 μL of both stock solutions (complex and caffeine) were added to 400 μL of human plasma, achieving 500 μL. The resulting solutions were incubated upon continuous gentle shaking (ca. 300 rpm) for 48 h at 37 °C. After this time, the incubation was ended by adding 1 mL of methanol. The mixture was centrifuged for 45 min at 3000 rpm and 4 °C. The solution was filtered through a 0.2 μm membrane filter and submitted to HPLC analysis, that were carried out on a Jupiter Proteo column (250×4.6 mm, 4 μm, flow rate: 1 mL/min). The solvents (HPLC grade) were Millipore water (solvent A) and acetonitrile (solvent B). […] The flow rate was 1 mL min^−1, and the chromatogram was detected at 215 nm.

The test system of series [5] is CT‐26 cells. In words: ICP‐MS cellular uptake. The format is cell-based, mouse. The protocol: The cellular uptake of the complexes 3–8 was then investigated in CT‐26 cells by determining the amount of Ru inside the cells using inductively coupled plasma mass spectrometry (ICP‐MS) after 2 h of incubation at 5 μM. […] This is most probably due to the higher lipophilicity of the DIP ligand compared to phen. […] In contrast, the neutral complexes with the DIP ligand (3 and 5) present a lower uptake (ca. 50 %) compared the phen analogues 6 and 8. This observation is rather counter‐intuitive since compounds 3 and 5 have a higher cytotoxicity than 6 and 8. The lower uptake of the DIP complexes 3 and 5 might be due to the lower solubility of these complexes in the cell culture medium. However, taken together, the uptake and cytotoxicity data imply that 3 and 5 have a higher specific cytotoxic activity compared to the phen analogues 6 and 8, reasonably attributable to their higher lipophilicity.
ICP‐MS cellular uptake studies: CT‐26 cells were seeded at a density of 1×10^6. The next day, cells were treated with 5 μM of the corresponding complex diluted in the cell culture medium from a 10 mM stock solution in DMSO. After 2 h, cells were collected, counted, and stored at −80 °C. ICP‐MS samples were prepared as follows: samples were digested using 70 % nitric acid (1 mL, 60 °C, overnight) and then further diluted 1 : 100 (1 % HCl solution in MQ water) analysed using ICP‐MS. All ICP‐MS measurements were performed on an Agilent 7900 Quadrupole ICP‐MS located at the Institut de Physique du Globe de Paris (France). The monitored isotopes are 99 and 101 Ru. Daily, before the analytical sequence, an indium internal‐standard was injected after inline mixing with the samples to correct for signal drift and matrix effects. A set of calibration standards was analysed to confirm and model (through simple linear regression) the linear relationship between signal and concentration. The model was then used to convert measured sample counts to concentrations. Reported uncertainties were calculated using error propagation equations and considering the combination of standard deviation on replicated consecutive signal acquisitions (n=3), internal‐standard ratio and blank subtraction. The non‐linear term (internal‐standard ratio) was linearized using a first‐order Taylor series expansion to simplify error propagation. The amount of metal detected in the cell samples was transformed from ppb to μg of metal. Data were subsequently normalized to the number of cells and expressed as μmol of metal/number of cells.

In series [6] the test system is CT‐26 cells. Briefly: Mito stress test (Seahorse, oxygen consumption rate). The format is cell-based, mouse. To be noted: CT‐26, 24 h treatment; 1 (1 μM), 3 (5 μM), 4 (0.5 μM), 5 (10 μM), 6 (25 μM), 7 (10 μM), 8 (25 μM). The protocol: To further study the mechanism of action of complexes 3–8, their influence on the cellular metabolism of CT‐26 cells was investigated. Figure 6 represents the Mito stress test profile after 24 h of treatment; the oxygen consumption rate (OCR) changes with specific electron‐transport chain inhibitors. Oligomycin (inhibitor of ATP synthase (complex V)), FCCP (uncoupling agent), antimycin‐A (complex III inhibitors), and rotenone (complex I inhibitor) were employed in this study. In general, both cationic compounds 4 and 7 affected the mitochondrial processes. It is evident from the low basal respiration and the inhibition of ATP production compared to untreated cells (orange dots) that the mitochondrial membrane of the cells treated with such complexes lost the capacity to restore the proton balance when treated with an uncoupling agent (FCCP). The maximal respiration (the OCR value when the mitochondrial membrane is uncoupled) and spare respiratory capacity (difference in the OCR values between maximal respiration and basal respiration) of the cells were reduced compared to those of untreated cells (Figure 6). […] The results with complex 4 are consistent with its measured large mitochondrial uptake (see above).
Metabolic studies: mito stress test: CT‐26 cells were seeded in Seahorse XFe 96‐ well plates at a density of 20 000 cells/well in 80 μL of the medium. After 24 h, the medium was replaced with fresh medium, and either complex 1 (1 μM), 3 (5 μM), 4 (0.5 μM), 5 (10 μM), 6 (25 μM), 7 (10 μM), or 8 (25 μM) was added. After 24 h of incubation, the regular medium was removed, and cells were washed three times using Seahorse base media and incubated in a non‐CO2 incubator at 37 °C for 1 h. A Mito stress assay was run using 1 μM oligomycin, 1 μM FCCP, and a mixture of 1 μM antimycin‐A/1 μM rotenone in ports A−C, respectively, using a Seahorse XFe96 extracellular flux analyser.

The test system of a further series is HeLa cells. Also on record: method as in PMID 32065454. The note with it: cited from earlier work.
The test system of series [7] is CT‐26 cells. Briefly: Cellular fractionation (mitochondria and nucleus isolation, Ru content). The class given is cell-based, mouse. The note with it: CT‐26, 5 μM, 4 h. How it is done: Additionally, we choose the best candidate from the cytotoxicity experiments, namely [Ru(DIP)2(η^2‐acac)]Cl (4), to explore its cellular localisation. For this, we performed cellular fractionation experiments to ascertain in which organelle it localizes.
Sample preparation for cellular fractionation: CT‐26 cells were seeded in three 15 cm^2 cell culture dishes and cells were 90 % confluent on the day of treatment. On the day of treatment, cells were incubated with the target complex at a concentration of 5 μM for 4 h, then the medium was removed and the cells were washed, collected, and counted. After re‐suspension in cold PBS, the organelles were isolated by using different protocols (one cell culture dish per isolation was used).
Mitochondria and nucleus isolation : To isolate mitochondria, a Mitochondria Isolation Kit (Cat. Nr: MITOISO2, SigmaAldrich) and Nucleus Isolation Kit (NUC‐101) were used according to the manufacturer procedure for the isolation of mitochondria via homogenization method.

With [Ru(bpy)(phpy)(dppz)]^+, in the series on cancer cells, the “complex accumulated in nuclei” value was roughly 90%.

Take `[Ru+2].c1ccc(-c2ccnc3c2ccc2c(-c4ccccc4)ccnc23)cc1.c1ccc(-c2ccnc3c2ccc2c(-c4ccccc4)ccnc23)cc1.c1ccc2nc3c4cccnc4c4ncccc4c3nc2c1` [[Ru(DIP)2(dppz)]^2+]: in the series on different tumour cells, the “inhibition against tumour cells” value is reported as “low inhibition”.

In the case of `O=C([O-])CC(=O)[O-].[Ru+2].c1cnc2c(c1)ccc1cccnc12.c1cnc2c(c1)ccc1cccnc12` [Compound 6, [Ru(phen)2(η^2‐mal)]], the IC50 in series [1], in [2] and in series [3] was greater than 100 µM in each case. Further, the “stability in human plasma (UV‐vis spectra and HPLC chromatograms before and after incubation)” value in series [4] (48 h) is “chemical transformation”. In addition, the “complex still intact (HPLC)” value in [4] (after 48 h) came to 15%.

As to `N.N.[Cl][Pt][Cl]` [cisplatin, reference compound], the IC50 (in general, the concentration that gives 50% inhibition) in [1] worked out at 1.94 ± 0.72 µM; in series [2], 10.3 ± 1.14 µM; in series [3], 20.1 ± 3.91 µM.

With [Ru(DIP)2(η^2‐mal)] [Compound 3], the IC50 in series [1] is 5.63 ± 0.34 µM; in series [2], 4.92 ± 0.33 µM; in [3], 5 ± 0.7 µM. Moreover, in the series on CT‐26 cells [5] (CT‐26, 5 μM, 2 h), the “lower uptake compared to the phen analogues 6 and 8” value is “ca. 50%”.

As to `Cc1occc(=O)c1[O-].F[P-](F)(F)(F)(F)F.[Ru+2].c1ccc(-c2ccnc3c2ccc2c(-c4ccccc4)ccnc23)cc1.c1ccc(-c2ccnc3c2ccc2c(-c4ccccc4)ccnc23)cc1` [Compound 1, [Ru(DIP)2(mlt)](PF6), reference compound], in the series with CT‐26 cells [6], the “effect on mitochondrial respiration (basal respiration, OCR profile) vs untreated cells” value (“effect … vs untreated cells” for short) is listed as “severe impairment of mitochondrial respiration”. The 50% inhibitory concentration (IC50) in [1] is 0.37 ± 0.12 µM; in series [2], 1.84 ± 0.23 µM; in series [3], 0.67 ± 0.14 µM. In the series on HeLa cells, the subcellular accumulation result was “accumulate more in the nucleus than in mitochondria”.

Take `O=C([O-])C(=O)[O-].[Ru+2].c1cnc2c(c1)ccc1cccnc12.c1cnc2c(c1)ccc1cccnc12` [Compound 8, [Ru(phen)2(η^2‐ox)]]: the 50% inhibitory concentration (IC50) in series [1], in series [2] and in series [3] was greater than 100 µM each time.

`CC(=O)C=C(C)[O-].[Cl-].[Ru+2].c1ccc(-c2ccnc3c2ccc2c(-c4ccccc4)ccnc23)cc1.c1ccc(-c2ccnc3c2ccc2c(-c4ccccc4)ccnc23)cc1` [Compound 4, [Ru(DIP)2(η^2‐acac)]Cl]: the “effect … vs untreated cells” value in the series on CT‐26 cells [6] is “severe impairment of mitochondrial respiration”. In addition, the IC50 in [1] turned out to be 0.41 ± 0.1 µM; in series [2], 0.62 ± 0.19 µM; in [3], 0.5 ± 0.12 µM. Further, the “selectivity towards CT‐26 and PC‐3 cancer cell lines compared to healthy cell line RPE‐1” value in series [1] (from IC50 values, 48 h) was “no selectivity”. Further, the “fraction detected in the nucleus (of the total amount of Ru)” value in the series on CT‐26 cells [7] is listed as “ca. 10%”. In addition, in the series with CT‐26 cells [7], the “localization in mitochondria (of the total amount of Ru)” value is given as “ca. 50%”. Also, in the series with CT‐26 cells [5] (CT‐26), the “cellular uptake compared to neutral DIP complexes 3 and 5” value is listed as “at least three times larger”. In addition, the “cellular uptake compared to phen counterpart 7” value in the series on CT‐26 cells [5] (CT‐26, 5 μM, 2 h) is listed as “almost three times larger”. The “cellular uptake compared to reference complex 1” value in the series on CT‐26 cells [5] (CT‐26, 5 μM, 2 h) is reported as “ca. three times larger”. For the same molecule, in the series with CT‐26 cells [5] (CT‐26, 5 μM, 2 h incubation), the “cellular uptake (amount of Ru inside the cells)” value is “most significant uptake”.

In the case of `O=C([O-])C(=O)[O-].[Ru+2].c1ccc(-c2ccnc3c2ccc2c(-c4ccccc4)ccnc23)cc1.c1ccc(-c2ccnc3c2ccc2c(-c4ccccc4)ccnc23)cc1` [Compound 5, [Ru(DIP)2(η^2‐ox)]], the 50% inhibitory concentration (IC50) turned out to be 24.1 ± 2.5 µM in series [1], 21.1 ± 2.29 µM in series [2] and 14.5 ± 3 µM in [3]. Also, in the series on CT‐26 cells [5] (CT‐26, 5 μM, 2 h), the “lower uptake compared to the phen analogues 6 and 8” value is “ca. 50%”.

As to `CC(=O)C=C(C)[O-].[Cl-].[Ru+2].c1cnc2c(c1)ccc1cccnc12.c1cnc2c(c1)ccc1cccnc12` [Compound 7, [Ru(phen)2(η^2‐acac)]Cl], in the series with CT‐26 cells [6], the “effect … vs untreated cells” value is recorded as “severe impairment of mitochondrial respiration”. Also, the IC50 in series [1] is 10.3 ± 0.74 µM; in series [2], greater than 100 µM; in series [3] it was greater than 100 µM.
